Laboratory results: ChEMBL document CHEMBL1201862, “PubChem BioAssay data set” (2004)
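Interpolation was linear, between the two tested concentrations surrounding the appropriate level; five concentrations were tested over 48 hours in 96-well plates. At the GI50, growth is halved.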 The source made the active and inactive calls. No stated cut-off is given here; in the data, active = GI50 up to about 1.1 µM and inactive = higher.

How the values were obtained:
Assay in all cases: NCI anticancer screen, dose series, 48 h
[1] = system: 786-0
[2] = system: A498
[3] = system: DMS-114
[4] = system: EKVX
[5] = system: HCC 2998
[6] = system: HCT-116
[7] = system: HT-29
[8] = system: K562
[9] = system: KM12
[10] = system: M14
[11] = system: NCI-H522
[12] = system: OVCAR-8
[13] = system: SF-295
[14] = system: SK-MEL-28
[15] = system: SK-MEL-2
[16] = system: SK-OV-3
[17] = system: SN12C
[18] = system: SW-620
[19] = system: MCF7
[20] = system: PC-3

Compound | GI50 [1] | GI50 [2] | GI50 [3] | GI50 [4] | GI50 [5] | GI50 [6] | GI50 [7] | GI50 [8] | GI50 [9] | GI50 [10] | GI50 [11] | GI50 [12] | GI50 [13] | GI50 [14] | GI50 [15] | GI50 [16] | GI50 [17] | GI50 [18] | GI50 [19] | GI50 [20]
Cc1cc(Cl)ccc1NC(=O)C1C(=O)N(c2ccc(Cl)cc2C)C(=O)/C1=N\N (configuration not stated) | 81.3 µM (inactive) | 28.3 µM (inactive) | 30.1 µM (inactive) | 57.5 µM (inactive) | 24.9 µM (inactive) | 30.5 µM (inactive) | 53.6 µM (inactive) | 45.1 µM (inactive) | 25.4 µM (inactive) | 61.2 µM (inactive) | 53.5 µM (inactive) | 48.3 µM (inactive) | 28.9 µM (inactive) | 52.5 µM (inactive) | 27 µM (inactive) | 97.5 µM (inactive) | 36.6 µM (inactive) | 42.4 µM (inactive) | – | –
C[C@]12CC[C@H](O)CC1CCC[C@@H]2O (some centres not stated) | > 100 µM (inactive) | > 100 µM (inactive) | > 100 µM (inactive) | > 100 µM (inactive) | > 100 µM (inactive) | > 100 µM (inactive) | > 100 µM (inactive) | > 100 µM (inactive) | > 100 µM (inactive) | > 100 µM (inactive) | > 100 µM (inactive) | > 100 µM (inactive) | > 100 µM (inactive) | > 100 µM (inactive) | > 100 µM (inactive) | > 100 µM (inactive) | > 100 µM (inactive) | > 100 µM (inactive) | – | –
CCO/C=C1\N=C(c2ccc(Cl)c(Cl)c2)OC1=O | > 100 µM (inactive) | 27 µM (inactive) | 28.4 µM (inactive) | 41 µM (inactive) | > 100 µM (inactive) | – | > 100 µM (inactive) | > 100 µM (inactive) | > 100 µM (inactive) | > 100 µM (inactive) | 89.5 µM (inactive) | > 100 µM (inactive) | > 100 µM (inactive) | > 100 µM (inactive) | > 100 µM (inactive) | – | > 100 µM (inactive) | > 100 µM (inactive) | – | –
CCOC(=O)CN(c1ccccc1)c1nc(=[N+](C)C)ss1 | 37.9 µM (inactive) | 42.5 µM (inactive) | 0.309 µM (active) | – | 41.1 µM (inactive) | 5.65 µM (inactive) | – | 6.78 µM (inactive) | – | 32.4 µM (inactive) | 0.24 µM (active) | 20 µM (inactive) | – | 26.4 µM (inactive) | 19.8 µM (inactive) | 85.1 µM (inactive) | 17.9 µM (inactive) | 53.1 µM (inactive) | – | –
CCC1(OC(=O)CN2CCN(CCO)CC2)C(=O)OCc2c1cc1n(c2=O)Cc2cc3ccccc3nc2-1 (configuration not stated) | 0.13 µM (active) | 0.514 µM (active) | 0.558 µM (active) | 4.51 µM (inactive) | 0.45 µM (active) | 0.417 µM (active) | 0.931 µM (active) | 0.583 µM (active) | 0.457 µM (active) | 0.265 µM (active) | 0.306 µM (active) | 0.522 µM (active) | 0.141 µM (active) | 3.33 µM (inactive) | 4.25 µM (inactive) | 1.17 µM (inactive) | 0.125 µM (active) | 0.0991 µM (active) | 0.107 µM (active) | 0.405 µM (active)
NC(=O)c1cccc([C@@H]2O[C@H](CO)[C@@H](O)[C@H]2O)c1 | 3.72 µM (inactive) | > 100 µM (inactive) | 15.3 µM (inactive) | 68.7 µM (inactive) | 29.3 µM (inactive) | 18.5 µM (inactive) | 16.2 µM (inactive) | 3.17 µM (inactive) | 4.09 µM (inactive) | 3.2 µM (inactive) | 4.14 µM (inactive) | 3.79 µM (inactive) | 9.06 µM (inactive) | 6.98 µM (inactive) | > 97.1 µM (inactive) | 7.21 µM (inactive) | 40.4 µM (inactive) | 7.78 µM (inactive) | > 37.3 µM (inactive) | 30.9 µM (inactive)
c1ccc(C(c2ccccc2)c2ccccn2)cc1 | > 100 µM (inactive) | > 100 µM (inactive) | > 100 µM (inactive) | > 100 µM (inactive) | > 100 µM (inactive) | > 100 µM (inactive) | > 100 µM (inactive) | > 100 µM (inactive) | > 100 µM (inactive) | > 100 µM (inactive) | – | > 100 µM (inactive) | > 100 µM (inactive) | > 100 µM (inactive) | > 100 µM (inactive) | > 100 µM (inactive) | > 100 µM (inactive) | > 100 µM (inactive) | – | –
c1ccc2c(c1)[nH]c1c[nH]c3c4cccnc4nc-3c12 | 17.1 µM (inactive) | 33.3 µM (inactive) | 19 µM (inactive) | 19.9 µM (inactive) | 19 µM (inactive) | 17.1 µM (inactive) | 19.3 µM (inactive) | 21.5 µM (inactive) | – | 15 µM (inactive) | – | 17.1 µM (inactive) | 23.4 µM (inactive) | 21.2 µM (inactive) | – | – | 18.6 µM (inactive) | 18.1 µM (inactive) | – | –
